For assay [1], the target named is T1, delF508-CFTR (Homo sapiens, UniProt P13569, DEL508-508).
T1 construct: expressed in transfected cells
Put plainly: Measurement of delF508-CFTR-HRP surface expression in CFBE41o- cells. The class given is cell-based. The settings on record: for EC50: HRP-tagged delF508-CFTR in CFBE41o- cells, 24 h with compound, luminescence, 10-point curve, top 10 μM; for Emax: efficacy relative to reference compound 3-(6-(1-(2,2-difluorobenzo[d][1,3]dioxol-5-yl)cyclopropane-1-carboxamido)-3-methylpyridin-2-yl)benzoic acid, CFBE41o- cells, 24 h, read-out: DelF508-CFTR-HRP Amax %. The gist of the method: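 CFBE41o- cells stably expressing delF508-CFTR with HRP in the fourth extracellular loop, induced with 500 ng/mL doxycycline for 48 h, then treated with compound (top 10 μM, 10-point 3-fold) for 24 h at 37° C. Surface HRP detected by luminescence with cell-impermeant substrate; EC50 from logistic fit of triplicates, normalized to lowest concentration.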

Assay [2] has as its target T1, delF508-CFTR. Put plainly: delF508-CFTR functional activity in primary human bronchial epithelial cells (HBECs), Multi-Transepithelial Clamp Circuit (MTECC-24) assay. Conditions: for EC50: primary human delF508-CFTR bronchial epithelial cells, 24 h with compound, equivalent short circuit current (Ieq), forskolin plus potentiator, mean of at least two replicates, read-out: MTECC24-CFHBEC EC50; for MTECC24-CFHBEC Amax %: test compound added 24 h before assay, with potentiator (S)-3-amino-6-methoxy-N-(3,3,3-trifluoro-2-hydroxy-2-methylpropyl)-5-(trifluoromethyl)picolinamide, relative to 2 μM 3-(6-(1-(2,2-difluorobenzo[d][1,3]dioxol-5-yl)cyclopropane-1-carboxamido)-3-methylpyridin-2-yl)benzoic acid + 0.5 μM N-(2,4-di-tert-butyl-5-hydroxyphenyl)-4-oxo-1,4-dihydroquinoline-3-carboxamide. The class given is cell-based. The source says: Measurement of delF508-CFTR Functional Activity in Primary Human Bronchial Epithelial Cells (HBECs) Using Multi-Transepithelial Clamp Circuit (MTECC-24) Assay
This assay measures the functional activity of the CFTR channel (Chloride ion transport) in patient derived primary human bronchial epithelial cells with forskolin activation and in the presence of the CFTR corrector/potentiator combination.
Primary human delF508-CFTR bronchial epithelial cells were and cultured according to previously established methods (Neuberger, T. et, al., Methods in Molecular Biology, 2011, 741, pp 39-54). Briefly, before thawing the HBEC cells, T25 flasks were coated with 2 mL of 3T3 conditioned media (MTI-GlobalStem, Cat #GSM9100) for at least 12 hours in 37° C. CO2 incubator. 1.7×10^5 cells were seeded into one T25 flask with 5 mL of HBE growth media (BEBM with supplements (Lonza, Cat #CC-3170) with 10 nM of retinoic acid (Sigma, Cat #R-2625) and 1% of PSA (Hyclone, Cat #SV30079.01). Media was changed every day till the cells were 100% confluent. Cells were seeded into T75 flasks (pre-coated with 5 mL of 3T3 conditioned media for more than 12 hrs) at 4.95×10^5 cells/T75 flask in 15 mL of HBE growth media. Flasks were fed everyday with fresh HBE growth media until the cells were confluent. 24-well transwell plates (Corning, Cat #3378) were coated with 3T3 conditioned media (70 μL on top of the filter, 350 μL to the bottom of the well) overnight in the 37° C. CO2 incubator. Cells were seeded in the pre-coated 24-well transwell plates at 1.7×10^5 cell/well with 700 μL of growth media at the bottom of the well and 200 μL of growth media at the top of the filter. After 24 hrs, cells were switched into HBE differentiation media ((DMEM/F12 (Gibco, Cat #11330-032) supplement with 2% Ultroser G (Pall, Cat #15950-017), 2% of Fetal Clone II (Hyclone, Cat #SH30066.03), 0.25% Bovine Brain Extract (Lonza, Cat #CC-4098), 1% of PSA, 2.5 μg/mL of Insulin (Sigma, Cat #19278), 20 nM of Hydrocortisone (Sigma, Cat #H0888), 500 nM of Triiodothyronine (Sigma, Cat #T6397), 2.5 μg/mL of Transferrin (Sigma, Cat #T8158), 250 nM of Ethanolamine (Sigma, Cat #E0135), 1.5 μM of Epinephrine (Sigma, Cat #E4250), 250 nM of Phosphoethanolamine (Sigma, Cat #P0503), 10 nM of retinoic acid)) with 200 μL on top of the filter (apical side) and 700 μL at the bottom of the well (basolateral side). Cells were fed every other day with the differentiation media. After 4 days, cells were exposed to air/liquid interface. Then cells were fed every other day for 4 weeks before fully differentiated.
Cells were washed with 3 mM DTT in PBS at 70 ul/well for 30 min at 37° C. 6 days before the assay. 3 days before the assay, cells were washed again with PBS at 70 ul/well for 30 min at 37° C. Then cells were treated with compound for 24 hrs before the assay.
Following 24 hr treatment with compound, cells were transferred into plates containing 750 ul of assay media on basolateral side and 250 ul on apical side (Assay medium: F-12 Coon's modified, 20 mM HEPES pH7.4 with TRIS Base, No FCS or bicarbonate). The plates wee then transferred to the heated plate compartments (basolateral buffer temperature ˜36.5° C. on the heating block) of the TECC24 system for 45 mins prior to measurements.
Modulators were added sequentially as follows while the TECC24 instrument recorded the equivalent short circuit current (Ieq):
Prior to dilution into assay medium the stocks were as follows: • Benzamil stock: 10 mM in DMSO • Forskolin Stock: 50 mM in DMSO • N-(2,4-di-tert-butyl-5-hydroxyphenyl)-1,4-dihydro-4-oxoquinoline-3-carboxamide: 50 mM in DMSO • (S)-3-amino-6-methoxy-N-(3,3,3-trifluoro-2-hydroxy-2-methylpropyl)-5-(trifluoromethyl)picolinamide: 50 mM stock 100% DMSO • Bumetanide stock: 20 mM in EtOH
The data was normalized using the median signal from wells treated with 0.1% DMSO as a baseline. Curve fitting and EC50 calculations were performed using the following equation: […]

The values that follow come from patent US20220127247A1, “N-(PYRIDIN-2-YL)PYRIDINE-SULFONAMIDE DERIVATIVES AND THEIR USE IN THE TREATMENT OF DISEASE” (NOVARTIS AG, priority 2019, published 2022).

The EC50 is the concentration at which the effect is half-maximal.

T1 sequence (P13569 with tags, fused parts or gaps DEL508-508): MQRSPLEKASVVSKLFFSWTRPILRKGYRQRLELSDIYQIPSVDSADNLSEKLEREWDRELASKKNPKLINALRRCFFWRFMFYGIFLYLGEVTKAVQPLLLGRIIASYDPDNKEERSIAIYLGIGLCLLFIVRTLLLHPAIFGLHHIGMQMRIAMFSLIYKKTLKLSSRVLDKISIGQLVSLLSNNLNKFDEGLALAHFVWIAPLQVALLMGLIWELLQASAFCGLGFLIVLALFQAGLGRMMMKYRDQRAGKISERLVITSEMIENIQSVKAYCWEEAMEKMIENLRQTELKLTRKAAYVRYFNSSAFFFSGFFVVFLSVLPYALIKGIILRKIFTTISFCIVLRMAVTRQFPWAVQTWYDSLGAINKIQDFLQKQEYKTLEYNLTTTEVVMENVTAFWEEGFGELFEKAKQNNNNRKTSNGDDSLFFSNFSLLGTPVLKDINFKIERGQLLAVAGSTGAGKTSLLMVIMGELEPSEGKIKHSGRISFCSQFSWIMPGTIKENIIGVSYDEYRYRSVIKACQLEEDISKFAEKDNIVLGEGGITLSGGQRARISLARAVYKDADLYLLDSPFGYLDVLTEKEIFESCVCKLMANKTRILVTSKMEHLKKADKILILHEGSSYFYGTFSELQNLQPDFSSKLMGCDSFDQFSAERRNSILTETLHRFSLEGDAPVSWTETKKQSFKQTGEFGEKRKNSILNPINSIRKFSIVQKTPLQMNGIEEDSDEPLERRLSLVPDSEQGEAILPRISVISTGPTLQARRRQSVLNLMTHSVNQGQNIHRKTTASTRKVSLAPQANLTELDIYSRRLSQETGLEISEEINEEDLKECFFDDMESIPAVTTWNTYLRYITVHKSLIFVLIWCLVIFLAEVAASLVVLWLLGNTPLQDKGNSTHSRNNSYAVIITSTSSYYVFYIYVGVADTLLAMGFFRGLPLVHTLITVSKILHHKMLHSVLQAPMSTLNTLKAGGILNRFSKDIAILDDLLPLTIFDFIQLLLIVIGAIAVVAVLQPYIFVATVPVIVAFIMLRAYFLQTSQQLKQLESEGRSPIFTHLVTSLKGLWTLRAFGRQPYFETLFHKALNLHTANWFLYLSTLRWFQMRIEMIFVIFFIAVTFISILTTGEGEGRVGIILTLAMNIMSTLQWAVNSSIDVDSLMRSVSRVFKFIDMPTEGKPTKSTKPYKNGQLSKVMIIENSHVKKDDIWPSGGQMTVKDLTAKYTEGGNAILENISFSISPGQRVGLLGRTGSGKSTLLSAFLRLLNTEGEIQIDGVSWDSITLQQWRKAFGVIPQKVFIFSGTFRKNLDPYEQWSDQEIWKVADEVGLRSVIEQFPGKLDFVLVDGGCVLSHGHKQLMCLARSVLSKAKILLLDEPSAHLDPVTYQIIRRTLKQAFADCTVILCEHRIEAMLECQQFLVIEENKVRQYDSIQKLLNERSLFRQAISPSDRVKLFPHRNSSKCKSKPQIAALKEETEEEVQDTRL

Regarding `CCCCN(CCCC(=O)O)c1cccc(S(=O)(=O)Nc2ccc(C(F)(F)F)c(-c3cc(F)ccc3C)n2)n1` [Compound 102, 4-(butyl(6-(N-(6-(5-fluoro-2-methylphenyl)-5-(trifluoromethyl)pyridin-2-yl)sulfamoyl)pyridin-2-yl)amino)butanoic Acid], the EC50 in assay [1] stood at 1260 nM. Also, in assay [2], the EC50 came to 131 nM and the “MTECC24-CFHBEC Amax %” value is 298%.

As for `CCCN(CCC(=O)O)c1cccc(S(=O)(=O)Nc2ccc(C(F)(F)F)c(-c3ccccc3C)n2)n1` [Compound 148, 3-(propyl(6-(N-(6-(o-tolyl)-5-(trifluoromethyl)pyridin-2-yl)sulfamoyl)pyridin-2-yl)amino)propanoic Acid], the values for the EC50 in assay [1] and in assay [2] were 1450 nM and 179 nM, respectively. The “MTECC24-CFHBEC Amax %” value in assay [2] amounted to 247%.

`Cc1ccc(F)cc1-c1nc(NS(=O)(=O)c2cccc(N(C)CCCC(=O)O)n2)ccc1C(F)(F)F` [Compound 92, 4-((6-(N-(6-(5-fluoro-2-methylphenyl)-5-(trifluoromethyl)pyridin-2-yl)sulfamoyl)pyridin-2-yl)(methyl)amino)butanoic Acid]: the EC50 in assay [1] worked out at 1820 nM; in assay [2], 394 nM. In addition, the “MTECC24-CFHBEC Amax %” value in assay [2] amounted to 123%.

Turning to `Cc1ccccc1-c1nc(NS(=O)(=O)c2cccc(N(CCC(=O)O)CC3CC3)n2)ccc1C(F)(F)F` [Compound 86, 3-((cyclopropylmethyl)(6-(N-(6-(o-tolyl)-5-(trifluoromethyl)pyridin-2-yl)sulfamoyl)pyridin-2-yl)amino)propanoic Acid], in assay [1], the EC50 was determined as 1380 nM. In assay [2], the 50% effective concentration (EC50) is 61 nM and the “MTECC24-CFHBEC Amax %” value was 253%.

In the case of `Cc1ccc(F)cc1-c1nc(NS(=O)(=O)c2cccc(N(CCCC(=O)O)CC(C)C)n2)ccc1C(F)(F)F` [Compound 127, 4-((6-(N-(6-(5-fluoro-2-methylphenyl)-5-(trifluoromethyl)pyridin-2-yl)sulfamoyl)pyridin-2-yl)(isobutyl)amino)butanoic Acid], the EC50 in assay [1] stood at 720 nM. Also, in assay [2], the 50% effective concentration (EC50) was 21 nM and the “MTECC24-CFHBEC Amax %” value was found to be 247%.

As for `CCc1ccc(F)cc1-c1nc(NS(=O)(=O)c2cccc(N(CC)CCCC(=O)O)n2)ccc1C(F)(F)F` [Compound 110, 4-(ethyl(6-(N-(6-(2-ethyl-5-fluorophenyl)-5-(trifluoromethyl)pyridin-2-yl)sulfamoyl)pyridin-2-yl)amino)butanoic Acid], the EC50 in assay [1] was 1030 nM. Further, in assay [2], the EC50 came to 6 nM and the “MTECC24-CFHBEC Amax %” value is on record as 182%.

On to `CCCN(CCCC(=O)O)c1cccc(S(=O)(=O)Nc2ccc(Cl)c(-c3ccccc3C)n2)n1` [Compound 156, 4-((6-(N-(5-chloro-6-(o-tolyl)pyridin-2-yl)sulfamoyl)pyridin-2-yl)(propyl)amino)butanoic Acid], for which, in assay [1], the EC50 came to 920 nM and the Emax amounted to 549%. Moreover, in assay [2], the EC50 was determined as 230 nM and the “MTECC24-CFHBEC Amax %” value worked out at 158%.

On to `CCN(CCC(=O)O)c1cccc(S(=O)(=O)Nc2ccc(C(F)(F)F)c(-c3ccccc3C(C)C)n2)n1` [Compound 70, 3-(ethyl(6-(N-(6-(2-isopropylphenyl)-5-(trifluoromethyl)pyridin-2-yl)sulfamoyl)pyridin-2-yl)amino)propanoic Acid], for which the figures for the 50% effective concentration (EC50) in assay [1] and in assay [2] were 1570 nM and 68 nM, respectively. Further, the “MTECC24-CFHBEC Amax %” value in assay [2] turned out to be 126%.

Regarding `Cc1ccccc1-c1nc(NS(=O)(=O)c2cccc(N(CCC(=O)O)CC(C)C)n2)ccc1C(F)(F)F` [Compound 128, 3-(isobutyl(6-(N-(6-(o-tolyl)-5-(trifluoromethyl)pyridin-2-yl)sulfamoyl)pyridin-2-yl)amino)propanoic Acid], the 50% effective concentration (EC50) in assay [1] worked out at 1110 nM. Also, in assay [2], the EC50 stood at 31 nM and the “MTECC24-CFHBEC Amax %” value was determined as 277%.

Turning to `Cc1ccccc1-c1nc(NS(=O)(=O)c2cccc(N3CCC[C@@H](CC(=O)O)C3)n2)ccc1C(F)(F)F` [Compound 60, (S)-2-(1-(6-(N-(6-(o-tolyl)-5-(trifluoromethyl)pyridin-2-yl)sulfamoyl)pyridin-2-yl)piperidin-3-yl)acetic Acid], in assay [1], the concentration giving a half-maximal response (EC50) is 1910 nM and the Emax was determined as 997%. In assay [2], the EC50 turned out to be 65 nM and the “MTECC24-CFHBEC Amax %” value was 128%.

Consider `Cc1ccc(F)cc1-c1nc(NS(=O)(=O)c2cccc(N(CCC(=O)O)CC(C)C)n2)ccc1C(F)(F)F` [Compound 126, 3-((6-(N-(6-(5-fluoro-2-methylphenyl)-5-(trifluoromethyl)pyridin-2-yl)sulfamoyl)pyridin-2-yl)(isobutyl)amino)propanoic Acid], for which, in assay [1], the EC50 was determined as 970 nM. For the same compound, in assay [2], the EC50 worked out at 14 nM and the “MTECC24-CFHBEC Amax %” value stood at 207%.

`CCN(CCCC(=O)O)c1cccc(S(=O)(=O)Nc2ccc(C(F)(F)F)c(-c3cc(F)ccc3C)n2)n1` [Compound 115, 4-(ethyl(6-(N-(6-(5-fluoro-2-methylphenyl)-5-(trifluoromethyl)pyridin-2-yl)sulfamoyl)pyridin-2-yl)amino)butanoic Acid]: the EC50 in assay [1] was 1510 nM. In assay [2], the EC50 was 70 nM and the “MTECC24-CFHBEC Amax %” value amounted to 146%.

For `Cc1ccccc1-c1nc(NS(=O)(=O)c2cccc(N(CCC(=O)O)C3CC3)n2)ccc1C(F)(F)F` [Compound 118, 3-(cyclopropyl(6-(N-(6-(o-tolyl)-5-(trifluoromethyl)pyridin-2-yl)sulfamoyl)pyridin-2-yl)amino)propanoic Acid], in assay [1], the EC50 is 1850 nM and the Emax worked out at 563%. Besides, in assay [2], the EC50 amounted to 270 nM and the “MTECC24-CFHBEC Amax %” value worked out at 151%.

With `CCc1ccccc1-c1nc(NS(=O)(=O)c2cccc(N(CC)CCC(=O)O)n2)ccc1C(F)(F)F` [Compound 72, 3-(ethyl(6-(N-(6-(2-ethylphenyl)-5-(trifluoromethyl)pyridin-2-yl)sulfamoyl)pyridin-2-yl)amino)propanoic Acid], the EC50 in assay [1] was 1880 nM. Further, in assay [2], the EC50 worked out at 116 nM and the “MTECC24-CFHBEC Amax %” value is on record as 118%.
